The text below walks through data of ChEMBL document CHEMBL1141743, “Malyngamides M and N from the Hawaiian Red Alga Gracilaria coronopifolia” (J Nat Prod, 1998).

The test can be described thus: Cytotoxicity against mouse NB cells. The format is functional, cell-based.

Consider `CCCCCCC[C@@H](C/C=C/CCC(=O)N(C)C/C(=C/Cl)[C@]12O[C@H]1CC=C(C)C2=O)OC` [MALYNGAMIDE N], for which the IC50 (usually the concentration that gives 50% inhibition) is 12 µM. Then `CCCCCCC[C@@H](C/C=C/CCC(=O)N(C)C/C(=C/Cl)[C@]12O[C@H]1C[C@@H](OC(C)=O)[C@@H](C)C2=O)OC`, with 12 µM; and `CCCCCCC[C@@H](C/C=C/CCC(=O)N(C)C/C(=C/Cl)c1cccc(C)c1O)OC` [MALYNGAMIDE M], with greater than 20 µM.
